This note sets out measurements from US20060252766A1, “Methods using a combination of 3-heteroaryl-2-indolinone and a cyclooxygenase-2 inhibitor for the treatment of neoplasia” (PFIZER INC, priority 2002, published 2006).

For assay [1], the target named is T1, FLK-1 receptor (Mus musculus, UniProt P35918).
T1 construct: expressed in transfected cells; host or cells: NIH3T3 C7#3 cells
Description: FLK-1 ELISA in FLK-1/NIH3T3 cells. The assay is classed as cell-based.
Description: An ELISA assay was conducted to measure the kinase activity of the FLK-1 receptor and more specifically, the inhibition or activation of protein tyrosine kinase activity on the FLK-1 receptor. Specifically, the following assay was conducted to measure kinase activity of the FLK-1 receptor in FLK-1/NIH3T3 cells.
Coat Corning 96-well elisa plates with 1.0 μg per well Cappel Anti-rabbit IgG antibody in 0.1M Na2 CO3 pH 9.6. Bring final volume to 150 μl per well. Coat plates overnight at 4° C. Plates can be kept up to two weeks when stored at 4° C. • 2. Grow cells in Growth media(DMEM, supplemental with 2.0 mM L-Glutamine, 10% FBS) in suitable culture dishes until confluent at 37° C., 5% CO2. • 3. […] Grow cells at least one day at 37° C., 5% CO2. • 5. Wash cells with D-PBS 1×. • 6. Add 200 μl/well of starvation media (DMEM, 2.0 mM I-Glutamine, 0.1% FBS). Incubate overnight at 37° C., 5% CO2. • 7. Dilute Compounds/Extracts 1:20 in polypropylene 96 well plates using starvation media. Dilute dimethylsulfoxide 1:20 for use in control wells. • 8. Remove starvation media from 96 well cell culture plates and add 162 μl of fresh starvation media to each well. • 9. Add 18 μl of 1:20 diluted Compound/Extract dilution (from step 7) to each well plus the 1:20 dimethylsulfoxide dilution to the control wells (+/−VEGF), for a final dilution of 1:200 after cell stimulation. Final dimethylsulfoxide is 0.5%. […]

Assay [2] relates to 3T3/E/H+TGF-a(T) cells. Description: 3T3/E/H+TGF-a(T) cell growth SRB assay. Particulars: SRB readout. The format is cell-based.
Description: The SRB assays may be used to measure the effects of substances or cell growth. The assays are carried out as follows:
Trypsinize cells as usual. Transfer 100 μl of cell suspension to 10 ml of isotone. Count cells with the Coulter Counter. • 2. Dilute cells in growth medium to 60,000 cells/ml. Transfer 100 μl of cells to each well in a 96-well flat bottom plate to give 6000 cells/well. • 3. […] Gently shake plates to allow for uniform attachment of the cells. • 5. Incubate the plates at 37° C. in a 10% CO2 incubator. Day 1: Addition of Compound: • This part of assay is carried out in a laminar flow hood. • 1. In 96 well-round bottom plate, add 125 μl of growth medium to columns 3-11. […] At this dilution, the concentration of DMSO is 0.4% for a 2× solution or 0.2% for 1× solution on the cells. […] Transfer the 2× starting compound solution to quadruplicate wells in column 12 of the 96-well round bottom plate. Do 1:2 serial dilutions across the plate from right to left by transferring 125 μl from column 12 to column 11, column 11 to 10 and so on. Transfer 100 μl of compound dilutions onto 100 μl medium on cells in corresponding wells of 96-well flat bottom plate. Total volume per well should be 200 μl. • 4. For vehicle control, prepare a 2× solution of DMSO at 0.4% DMSO in growth medium. […] Read plates on Dynatech ELISA Plate Reader at 570 nm with reference at 630 nm. […]
In assay [3] the test system is HUV-EC-C cells (VEGF). Description: HUV-EC-C assay, [3H] thymidine incorporation, VEGF. The assay is classed as cell-based, human. The conditions noted are these: Mitogenesis in endothelial cells. On the technique in general: Uptake of a labelled nucleoside into DNA is a usual measure of proliferation.
The subject of assay [4] is HUV-EC-C cells (a-FGF). Nature of the assay: HUV-EC-C assay, [3H] thymidine incorporation, a-FGF. The format is cell-based, human. Particulars: Mitogenesis in endothelial cells. On the procedure:
The following protocol may also be used to measure the composition's activity: • Day 0 • 1. […] After cells have detached from the flask, add an equal volume of assay medium and transfer to a 50 ml sterile centrifuge tube (Fisher Scientific; catalogue no. 05-539-6). • 2. Wash the cells with about 35 ml assay medium in the 50 ml sterile centrifuge tube by adding the assay medium, centrifuge for 10 minutes at approximately 200×g, aspirate the supernatant, and resuspend with 35 ml D-PBS. Repeat the wash two more times with D-PBS, resuspend the cells in about 1 ml assay medium/15 cm^2 of tissue culture flask. Assay medium consists of F12K medium (Gibco BRL; catalogue no. 21127-014)+0.5% heat-inactivated fetal bovine serum. Count the cells with a Coulter Counter.RTM.v Coulter Electronics, Inc.) and add assay medium to the cells to obtain a concentration of 0.8-1.0×10^5 cells/ml. • 3. Add cells to 96-well flat-bottom plates at 100 μl/well or 0.8-1.0×10^4 cells/well; incubate about 24 h at 37° C., 5% CO2. Day 1 • 1. Make up two-fold drug titrations in separate 96-well plates, generally 50 μM on down to 0 μM. Use the same assay medium as mentioned in day 0, step 2 above. Titrations are made by adding […] of drug at 200 μM (4× the final well concentration) to the top well of a particular plate column. Since the stock drug concentration is usually 20 mM in DMSO, the 200 μM drug concentration contains 2% DMSO. Therefore, diluent made up to 2% DMSO in assay medium (F12K+0.5% fetal bovine serum) is used as diluent for the drug titrations in order to dilute the drug but keep the DMSO concentration constant. Add this diluent to the remaining wells in the column at 60 μl/well. Take 60 μl from the 120 μl of 200 μM drug dilution in the top well of the column and mix with the 60 μl in the second well of the column. Take 60 μl from this well and mix with the 60 μl in the third well of the column, and so on until two-fold titrations are completed. When the next-to-the-last well is mixed, take 60 μl of the 120 μl in this well and discard it. Leave the last well with 60 μl of DMSO/media diluent as a non-drug-containing control. Make 9 columns of titrated drug, enough for triplicate wells each for 1) VEGF (obtained from Pepro Tech Inc., catalogue no. 100-200, 2) endothelial cell growth factor (ECGF) (also known as acidic fibroblast growth factor, or aFGF) (obtained from Boehringer Mannheim Biochemica, catalogue no. 1439 600), and assay media control. ECGF comes as a preparation with sodium heparin. • 2. Transfer 50 μl/well of the drug dilutions to the 96-well assay plates containing the 0.8-1.0×10^4 cells/100 μl/well of the HUV-EC-C cells from day 0 and […] incubate ~2 h at 37° C., 5% CO2. • 3. In triplicate, add 50 μl/well of 80 ng/ml VEGF, 20 ng/ml ECGF, or media control to each drug condition. As with the drugs, the growth factor concentrations are 4× the desired final concentration. Use the assay media from day 0 step 2 to make the concentrations of growth factors. Incubate approximately 24 hours at 37° C., 5% CO2. Each well will have 50 μl drug dilution, 50 μl growth factor or media, and 100 ul cells,=200 ul/well total. Thus the 4× concentrations of drugs and growth factors become 1× once everything has been added to the wells. Day 2 • 1. Add ^3H-thymidine (Amersham; catalogue no. TRK-686) at 1 μCi/well (10 μl/well of 100 μCi/ml solution made up in RPMI media+10% heat-inactivated fetal bovine serum) and incubate about 24 h at 37° C., 5% CO2. • Note: ^3H-thymidine is made up in RPMI media because all of the other applications for which we use the ^3H-thymidine involve experiments done in RPMI. The media difference at this step is probably not significant. RPMI was obtained from Gibco BRL, catalogue no. 11875-051. Day 3 • 1. Freeze plates overnight at −20° C. Day 4 • 1. […]

Assay [5] relates to PDGFR. Description: PDGF-induced BrdU incorporation assay in 3T3/EGFR cells. The format is cell-based. The conditions noted are these: Mitogenesis in 3T3/EGFR cells, read-out: PDGFR PDGF Ligand IC50.
Description: Protocol • (1) 3T3 engineered cell line: 3T3/EGFRc7. • (2) Cells are seeded at 8000 cells/well in DMEM, 10% CS, 2 mM Gin in a 96 well plate. […] The negative control wells receive serum free DMEM with 0.1% BSA only; the positive control cells receive the ligand (PDGF) but no test compound. […] FixDenat solution is added (50 μl/well) and the plates are incubated at room temperature for 45 minutes on a plate shaker. • (7) The FixDenat solution is thoroughly removed by decanting and tapping the inverted plate on a paper towel. Milk is added (5% dehydrated milk in PBS, 200 μl/well) as a blocking solution and the plate is incubated for 30 minutes at room temperature on a plate shaker. • (8) The blocking solution is removed by decanting and the wells are washed once with PBS. Anti-BrdU-POD solution (1:100 dilution in PBS, 1% BSA) is added (100 μl/well) and the plate is incubated for 90 minutes at room temperature on a plate shaker. • (9) The antibody conjugate is thoroughly removed by decanting and rinsing the wells 5 times with PBS, and the plate is dried by inverting and tapping on a paper towel. • (10) TMB substrate solution is added (100 μl/well) and incubated for 20 minutes at room temperature on a plate shaker until color development is sufficient for photometric detection. • (11) The absorbance of the samples is measured at 410 nm (in “dual wavelength” mode with a filter reading at 490 nm, as a reference wavelength) on a Dynatech ELISA plate reader.
Assay [6] has as its target FGFR (Mus musculus, UniProt P16092). Nature of the assay: FGF ligand BrdU incorporation in 3T3/EGFR cells. The format is cell-based. Particulars: Mitogenesis in 3T3/EGFR cells.
The target of assay [7] is PDGFR (Homo sapiens, UniProt P09619). Description: PDGF-R ELISA.
Sequence of PDGFR (Homo sapiens, UniProt P09619) (P09619 33-1106): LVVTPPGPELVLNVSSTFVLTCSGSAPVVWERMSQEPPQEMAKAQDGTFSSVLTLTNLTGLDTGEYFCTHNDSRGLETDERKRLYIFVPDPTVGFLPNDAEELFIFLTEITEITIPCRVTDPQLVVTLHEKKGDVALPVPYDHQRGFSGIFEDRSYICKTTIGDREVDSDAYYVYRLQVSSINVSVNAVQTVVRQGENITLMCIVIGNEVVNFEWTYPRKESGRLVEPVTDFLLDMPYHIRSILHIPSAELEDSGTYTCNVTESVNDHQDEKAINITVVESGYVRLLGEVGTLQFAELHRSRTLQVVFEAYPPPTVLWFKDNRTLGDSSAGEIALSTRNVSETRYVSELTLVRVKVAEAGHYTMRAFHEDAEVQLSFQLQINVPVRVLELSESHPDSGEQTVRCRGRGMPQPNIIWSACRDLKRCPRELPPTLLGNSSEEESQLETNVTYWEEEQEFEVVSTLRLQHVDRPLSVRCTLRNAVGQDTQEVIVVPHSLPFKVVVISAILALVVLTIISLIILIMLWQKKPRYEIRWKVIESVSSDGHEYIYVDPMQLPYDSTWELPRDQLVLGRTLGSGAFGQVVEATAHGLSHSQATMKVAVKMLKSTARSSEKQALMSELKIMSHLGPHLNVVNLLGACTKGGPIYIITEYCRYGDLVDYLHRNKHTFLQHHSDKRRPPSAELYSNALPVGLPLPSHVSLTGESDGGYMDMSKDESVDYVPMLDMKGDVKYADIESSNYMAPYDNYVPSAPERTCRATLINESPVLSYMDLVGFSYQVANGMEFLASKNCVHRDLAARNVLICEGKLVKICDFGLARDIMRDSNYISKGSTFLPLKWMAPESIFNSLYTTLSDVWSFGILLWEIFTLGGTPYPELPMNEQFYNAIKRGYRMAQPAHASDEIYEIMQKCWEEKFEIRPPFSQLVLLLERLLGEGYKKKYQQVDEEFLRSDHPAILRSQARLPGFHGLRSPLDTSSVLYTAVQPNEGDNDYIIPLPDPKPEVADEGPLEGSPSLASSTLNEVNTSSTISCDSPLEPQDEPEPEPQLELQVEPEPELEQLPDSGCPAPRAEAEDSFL
Description: All cell culture media, glutamine, and fetal bovine serum were purchased from Gibco Life Technologies (Grand Island, N.Y.) unless otherwise specified. […] All cell lines were routinely subcultured twice a week and were negative for mycoplasma as determined by the Mycotect method (Gibco).
For ELISA assays, cells (U1242, obtained from Joseph Schlessinger, NYU) were grown to 80-90% confluency in growth medium (MEM with 10% FBS, NEAA, 1 mM NaPyr and 2 mM GLN) and seeded in 96-well tissue culture plates in 0.5% serum at 25,000 to 30,000 cells per well. […] Lysates were incubated with shaking for 1 hour at room temperature. The plates were washed with TBST four times and then incubated with polyclonal anti-phosphotyrosine antibody at room temperature for 30 minutes. Excess anti-phosphotyrosine antibody was removed by rinsing the plate with TBST four times. Goat anti-rabbit IgG antibody was added to the ELISA plate for 30 min at room temperature followed by rinsing with TBST four more times. […] Absorbance at 410 nm with a reference wavelength of 630 nm was recorded about 15 to 30 min after ABTS addition.
The subject of assay [8] is 3T3/PDGFR+PDGF(T) cells. Nature of the assay: 3T3/PDGF-βR/PDGF-BB(T) cell growth SRB assay. The assay is classed as cell-based. The conditions noted are these: tumor-derived, SRB readout. As for the experimental part: Cell Line and Growth Medium:
• 3T3/PDGF-βR/PDGF-BB(T) (NIH 3T3 clone 7 cells expressing PDGFβ-receptor and PDGF-BB, from tumors resected from athymic mice) 2% calf serum/DMEM+2 mM glutamine Protocol: Day 0: Cell Plating: • This part of assay is carried out in a laminar flow hood. • 1. Trypsinize cells as usual. Transfer 200 μl of cell suspension to 10 ml of isotone. Count cells on the Coulter Counter. • 2. Dilute cells in growth medium to 60,000 cells/ml. Transfer 100 μl of cells to each well in a 96-well flat bottom plate to give 6000 cells/well. • 3. Allow half of plate (4 rows) for each compound and quadruplicate wells for each compound concentration, a set of 4 wells for medium control and 4 wells for DMSO control. • 4. Gently shake plates to allow for uniform attachment of the cells to the plate. • 5. Incubate the plates at 37° C. in a 10% CO2 incubator. • Day 1: Addition of Compound: same as for Assay 1. • Day 5: Development of Assay: same as for Assay 1.
3T3/E/H+TGF-α(T): NIH 3T3 cells expressing EGFR/HER2 chimera and TGF-α, tumor-derived 3T3/EGFR+TGF-α(T): NIH 3T3 cells expressing EGFR and TGF-α, tumor-derived 3T3/PDGFR+PDGF(T): NIH 3T3 cells expressing PDGF-βR and PDGF-ββ, tumor-derived SMC: human smooth muscle cells from Clonetics
For orientation: The SRB assay estimates cell density from bound dye.

Sequence of FGFR (P16092 22-822, change not shown): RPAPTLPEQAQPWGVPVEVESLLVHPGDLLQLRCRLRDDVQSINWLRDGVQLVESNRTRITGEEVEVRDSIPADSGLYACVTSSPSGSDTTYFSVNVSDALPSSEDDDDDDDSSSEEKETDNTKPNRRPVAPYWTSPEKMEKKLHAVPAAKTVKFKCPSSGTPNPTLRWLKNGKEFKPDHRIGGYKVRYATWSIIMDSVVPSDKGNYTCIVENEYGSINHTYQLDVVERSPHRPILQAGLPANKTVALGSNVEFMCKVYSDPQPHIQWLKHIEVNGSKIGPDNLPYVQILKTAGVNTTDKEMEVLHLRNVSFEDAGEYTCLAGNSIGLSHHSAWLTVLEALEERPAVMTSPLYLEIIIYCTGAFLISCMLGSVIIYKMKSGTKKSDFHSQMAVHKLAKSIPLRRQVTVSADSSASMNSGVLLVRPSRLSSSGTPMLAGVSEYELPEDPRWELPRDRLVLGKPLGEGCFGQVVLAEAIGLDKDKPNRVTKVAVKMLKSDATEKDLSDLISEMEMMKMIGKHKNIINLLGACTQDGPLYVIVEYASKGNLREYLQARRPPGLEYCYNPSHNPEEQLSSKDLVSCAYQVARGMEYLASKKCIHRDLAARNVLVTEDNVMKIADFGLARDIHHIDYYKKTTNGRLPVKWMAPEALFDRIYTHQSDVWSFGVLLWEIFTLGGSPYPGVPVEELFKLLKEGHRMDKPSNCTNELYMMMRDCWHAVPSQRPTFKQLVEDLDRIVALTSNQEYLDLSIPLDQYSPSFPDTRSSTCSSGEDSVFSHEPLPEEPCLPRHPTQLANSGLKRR
T1 sequence (P35918 20-1345): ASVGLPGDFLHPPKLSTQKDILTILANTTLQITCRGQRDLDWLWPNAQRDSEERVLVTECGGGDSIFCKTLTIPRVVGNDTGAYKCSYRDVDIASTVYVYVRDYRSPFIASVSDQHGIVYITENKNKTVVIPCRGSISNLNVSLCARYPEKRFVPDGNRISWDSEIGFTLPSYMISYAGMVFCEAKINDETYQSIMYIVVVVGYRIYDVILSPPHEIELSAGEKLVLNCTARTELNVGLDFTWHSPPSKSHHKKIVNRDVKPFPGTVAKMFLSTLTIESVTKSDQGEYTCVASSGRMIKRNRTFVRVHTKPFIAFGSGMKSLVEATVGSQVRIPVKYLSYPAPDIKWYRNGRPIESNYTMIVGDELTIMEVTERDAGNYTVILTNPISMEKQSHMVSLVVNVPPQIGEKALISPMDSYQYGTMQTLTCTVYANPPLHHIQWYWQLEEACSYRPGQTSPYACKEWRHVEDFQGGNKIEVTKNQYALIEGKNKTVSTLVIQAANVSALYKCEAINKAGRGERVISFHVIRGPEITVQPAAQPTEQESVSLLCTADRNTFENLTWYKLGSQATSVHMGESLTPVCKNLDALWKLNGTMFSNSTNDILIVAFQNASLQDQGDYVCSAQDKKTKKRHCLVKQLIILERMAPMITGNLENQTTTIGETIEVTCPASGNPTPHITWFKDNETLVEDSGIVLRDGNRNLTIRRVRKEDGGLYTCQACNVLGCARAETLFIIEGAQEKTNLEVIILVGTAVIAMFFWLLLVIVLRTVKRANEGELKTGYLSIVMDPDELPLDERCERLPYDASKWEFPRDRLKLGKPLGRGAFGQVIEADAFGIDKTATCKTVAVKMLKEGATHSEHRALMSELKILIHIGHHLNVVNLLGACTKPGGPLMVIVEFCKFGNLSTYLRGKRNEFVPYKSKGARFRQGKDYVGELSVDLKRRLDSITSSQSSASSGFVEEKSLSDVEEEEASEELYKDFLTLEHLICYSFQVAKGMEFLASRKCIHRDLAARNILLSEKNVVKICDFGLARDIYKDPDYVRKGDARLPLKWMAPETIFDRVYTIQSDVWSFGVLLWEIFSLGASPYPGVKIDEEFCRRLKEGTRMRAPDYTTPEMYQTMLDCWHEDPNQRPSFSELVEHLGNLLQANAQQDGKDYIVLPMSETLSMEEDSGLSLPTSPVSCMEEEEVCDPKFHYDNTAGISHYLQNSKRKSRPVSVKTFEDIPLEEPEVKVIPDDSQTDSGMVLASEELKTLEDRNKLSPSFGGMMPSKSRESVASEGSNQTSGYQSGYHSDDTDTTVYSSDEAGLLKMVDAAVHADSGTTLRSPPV

The term IC50 denotes the point on the concentration scale where inhibition reaches its midpoint. As for “3-[(2-Sulphonylfuran-5-yl)methylene]-2-indolinone sodium salt [SU5428]”, in assay [1], the midpoint of inhibition, the IC50, lay at 8.6 µM.

`CN(C)c1ccc(C=C2C(=O)Nc3ccccc32)cc1` [SU4312, 3-(4-Dimethylaminobenzylidenyl)-2-indolinone] registered an IC50 in assay [2] of 36 µM.

Turning to `COc1ccc(OC)c(C=C2C(=O)Nc3ccccc32)c1` [SU4793, 3-(2,5-Dimethoxybenzylidenyl)-2-indolinone], the IC50 in assay [3] is 6.6 µM; in assay [4], 3.4 µM.

In the case of `COc1cccc(C=C2C(=O)Nc3ccccc32)c1OC` [SU4794, 3-(2,3-dimethoxybenzylidenyl)-2-indolinone], the half-inhibitory concentration (IC50) in assay [3] is 4.8 µM; in assay [4], 35.7 µM.

As for `CC(=O)Nc1ccc(C=C2C(=O)Nc3ccccc32)cc1` [SU4799, 3-(4-acetamidobenzylidenyl)-2-indolinone], the IC50 in assay [3] turned out to be 19.9 µM.

As to `O=C1Nc2ccccc2C1=Cc1ccc(O)cc1Cl` [SU4932, 3-(2-chloro-4-hydroxybenzylidenyl)-2-indolinone], the IC50 in assay [3] worked out at 2.5 µM; in assay [4], 45.2 µM.

For `CN(C)c1ccc(C=C2C(=O)N(C)c3ccccc32)cc1` [SU4952, 3-(4-Dimethylaminobenzylidenyl)-1-methyl-2-indolinone], the IC50 came out at 25.6 µM in assay [3] and 19.3 µM in assay [4].

`CN1C(=O)C(=Cc2ccc(Br)cc2)c2ccccc21` [SU4956, 3-(4-Bromobenzylidenyl)-1-methyl-2-indolinone]: the IC50 is 8 µM in assay [3] and 13 µM in assay [4].

`CN(C)c1ccc(C=C2C(=O)Nc3ccc(Cl)cc32)cc1` [SU4967, 5-Chloro-3-(4-dimethylaminobenzylidenyl)-2-indolinone]: the 50% inhibitory concentration (IC50) in assay [5] is 9 µM; in assay [6], 4.9 µM; in assay [7], 7.9 µM.

As to `O=C1Nc2ccccc2C1=Cc1ccc(N2CCOCC2)cc1` [SU4981, 3-[4-(Morpholin-4-yl)benzylidenyl]-2-indolinone], the figures for the IC50 in assay [5], in assay [6] and in assay [7] were 3 µM, 10 µM and 33.1 µM, respectively.

Turning to `CN1C(=O)C(=Cc2ccc(N3CCOCC3)cc2)c2ccccc21` [SU4982, 1-Methyl-3-[4-(morpholin-4-yl)benzylidenyl]-2-indolinone], the IC50 is 46.1 µM in assay [3] and 27.3 µM in assay [4].

Take `O=CN1CCN(c2ccc(C=C3C(=O)Nc4ccccc43)cc2)CC1` [SU4984, 3-[4-(4-Formylpiperazin-1-yl)benzylidenyl]-2-indolinone]: the IC50 in assay [8] came out at 22.2 µM; in assay [7], 5.8 µM.

Regarding `Cc1c(CCC(=O)O)c[nH]c1C=C1C(=O)Nc2ccccc21` [SU5402, 3-[(3-(2-carboxyethyl)-4-methylpyrrol-5-yl)methylene]-2-indolinone], the IC50 was 50 µM in assay [5] and 40 µM in assay [6].

In the case of `Cc1cc[nH]c1C=C1C(=O)Nc2ccccc21` [SU5404, 3-[(3-Methylpyrrol-2-yl)methylene]-2-indolinone], the values for the IC50 in assay [5], in assay [6] and in assay [7] were 3 µM, 25 µM and 17 µM, respectively.

Take `Cc1c[nH]c(C=C2C(=O)Nc3ccccc32)c1C` [SU5406, 3-[(3,4-Dimethylpyrrol-2-yl)methylene]-2-indolinone]: the half-inhibitory concentration (IC50) in assay [5] was 5.2 µM.

As to `COC(=O)CCc1c(C)c[nH]c1C=C1C(=O)Nc2ccccc21` [SU5407, 3-{[4-(2-methoxycarbonylethyl)-3-methylpyrrol-5-yl]methylene}-2-indolinone], the IC50 in assay [7] came to 53.7 µM.

On to `CCc1ccc(C=C2C(=O)Nc3ccccc32)s1` [SU5451, 3-[(2-Ethylthien-5-yl)methylene]-2-indolinone], for which the figures for the IC50 in assay [5] and in assay [6] were 30 µM and 16 µM, respectively.

`CCc1c(C=C2C(=O)Nc3ccccc32)[nH]c(C)c1C` [SU5453, 3-[(4,5-Dimethyl-3-ethylpyrrol-2-yl)methylene]-2-indolinone] had an IC50 in assay [7] of 65.5 µM.

For the compound `CCOC(=O)CCc1c(C=C2C(=O)Nc3ccccc32)[nH]c(C(=O)OCC)c1CC(=O)OCC` [SU5465, 3-[(5-Ethoxycarbonyl-3-ethoxycarbonylethyl-4-ethoxylcarbonylmethylpyrrol-2-yl)methylene]-2-indolinone], the IC50 in assay [5] was determined as 40 µM; in assay [6] it was 25 µM.

On to `O=C1Nc2ccccc2C1=Cc1ccc(N2CCCC2)cc1` [SU5466, 3-[4-(Pyrrolidin-1-yl)benzylidenyl]-2-indolinone], for which the IC50 was 18 µM in assay [5], 15 µM in assay [6] and 86 µM in assay [7].

For the compound `Cc1cnc(C=C2C(=O)Nc3ccccc32)[nH]1` [SU5468, 3-[(5-Methylimidazol-2-yl)methylene]-2-indolinone], the IC50 in assay [5] amounted to 8 µM; in assay [7], 55.9 µM.

For the compound `Cc1cnc(C=C2C(=O)Nc3ccccc32)s1` [SU5469, 3-[(5-Methylthiazol-2-yl)methylene]-2-indolinone], the figures for the IC50 in assay [5] and in assay [6] were 4 µM and 15 µM, respectively.

In the case of `O=C1Nc2ccccc2C1=Cc1c[nH]cn1` [SU5473, 3-[(Imidazol-4-yl)methylene]-2-indolinone], the IC50 is 1.2 µM in assay [3] (Homo sapiens, HUVEC); 14.1 µM in assay [4] (Homo sapiens, HUVEC); 4 µM in assay [5]; 50 µM in assay [6]; 14.2 µM in assay [7].

With `O=C1Nc2ccccc2C1=Cc1c(Br)cnn1Cc1ccc(Cl)cc1` [SU5475, 3-[(4-Bromo-1-(4-chlorobenzyl)pyrazol-5-yl)methylene]-2-indolinone], the IC50 in assay [5] came out at 6.5 µM; in assay [6] it was 9 µM.
